Laboratory results published in patent publication US20120202690A1, “HERBICIDAL COMPOUNDS” (SYNGENTA LIMITED, priority 2009, published 2012).

Experiments:
Assay type in all cases: in vivo
Setaria faberi (SETFA) [1] = experiment: Post-emergence biological efficacy, glasshouse, 500 or 1000 g/ha, evaluated after 13 days (100=total damage to plant; 0=no damage to plant); details: rate 1,000 g/ha; for pest or weed control at 1000 g/ha: Setaria faberi, 312 h, read-out: Percentage damage caused to weed species, post-emergence, SETFA
How it was run: (§1)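 Weed seeds were sown in standard soil in pots and the plants treated post-emergence. Afterwards they were grown on in a controlled glasshouse at 24/16° C. day/night with 14 hours light and 65% humidity, and watered twice daily.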

[2] = tested on: Amaranthus retroflexus (AMARE); experiment: as above; details: rate 1,000 g/ha; for pest or weed control at 1000 g/ha: Amaranthus retroflexus, 312 h, read-out: Percentage damage caused to weed species, post-emergence, AMARE
How it was run: as §1

[3] = tested on: Ipomoea hederaceae (IPOHE); experiment: as above; details: rate 1,000 g/ha; for pest or weed control at 1000 g/ha: Ipomoea, 312 h, read-out: Percentage damage caused to weed species, post-emergence, IPOHE
How it was run: as §1

[4] = tested on: Echinochloa crusgaffi (ECHCG); experiment: as above; details: rate 1,000 g/ha; for pest or weed control at 1000 g/ha: Echinochloa, 312 h, read-out: Percentage damage caused to weed species, post-emergence, ECHCG
How it was run: as §1

Solanum nigrum (SOLNI) [5] = experiment: as above; details: rate 1,000 g/ha; for pest or weed control at 1000 g/ha: Solanum nigrum, 312 h, read-out: Percentage damage caused to weed species, post-emergence, SOLNI
How it was run: as §1

[6] = tested on: Alopecurus myosuroides (ALOMY); experiment: as above; details: rate 1,000 g/ha; for pest or weed control at 1000 g/ha: Alopecurus myosuroides, 312 h, read-out: Percentage damage caused to weed species, post-emergence, ALOMY
How it was run: as §1

Setaria faberi (SETFA) [7] = experiment: Pre-emergence biological efficacy, glasshouse, 1000 g/ha, evaluated after 13 days (100=total damage to plant; 0=no damage to plant); details: rate 1,000 g/ha; for pest or weed control at 1000 g/ha: Setaria faberi, 312 h, read-out: Percentage damage caused to weed species, pre-emergence, SETFA
How it was run: (§2)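 Standard soil in pots received the seeds. Growth took place in a glasshouse held at 24/16° C. day/night, 65% humidity and 14 h of light.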

[8] = tested on: Amaranthus retroflexus (AMARE); experiment: as above; details: rate 1,000 g/ha; for pest or weed control at 1000 g/ha: Amaranthus retroflexus, 312 h, read-out: Percentage damage caused to weed species, pre-emergence, AMARE
How it was run: as §2

[9] = tested on: Ipomoea hederaceae (IPOHE); experiment: as above; details: rate 1,000 g/ha; for pest or weed control at 1000 g/ha: Ipomoea, 312 h, read-out: Percentage damage caused to weed species, pre-emergence, IPOHE
How it was run: as §2

Solanum nigrum (SOLNI) [10] = experiment: as above; details: rate 1,000 g/ha; for pest or weed control at 1000 g/ha: Solanum nigrum, 312 h, read-out: Percentage damage caused to weed species, pre-emergence, SOLNI
How it was run: as §2

[11] = tested on: Echinochloa crus-galli (ECHCG); experiment: as above; details: rate 1,000 g/ha; for pest or weed control at 1000 g/ha: Echinochloa crus-galli, 312 h, read-out: Percentage damage caused to weed species, pre-emergence, ECHCG
How it was run: as §2

[12] = tested on: Alopecurus myosuroides (ALOMY); experiment: as above; details: rate 1,000 g/ha; for pest or weed control at 1000 g/ha: Alopecurus myosuroides, 312 h, read-out: Percentage damage caused to weed species, pre-emergence, ALOMY
How it was run: as §2

SMILES | pest or weed control at 1000 g/ha (Setaria faberi (SETFA) [1]) [%] | pest or weed control at 1000 g/ha [2] [%] | pest or weed control at 1000 g/ha [3] [%] | pest or weed control at 1000 g/ha [4] [%] | pest or weed control at 1000 g/ha (Solanum nigrum (SOLNI) [5]) [%] | pest or weed control at 1000 g/ha [6] [%] | pest or weed control at 1000 g/ha (Setaria faberi (SETFA) [7]) [%] | pest or weed control at 1000 g/ha [8] [%] | pest or weed control at 1000 g/ha [9] [%] | pest or weed control at 1000 g/ha (Solanum nigrum (SOLNI) [10]) [%] | pest or weed control at 1000 g/ha [11] [%] | pest or weed control at 1000 g/ha [12] [%] | also measured
COc1c(Cl)ccc(-c2nc(C(=O)O)c3c(C)cn(S(=O)(=O)c4ccc(C)cc4)c3n2)c1F [Compound 19-63, 4-Carboxy-2-(4-chloro-2-fluoro-3-methoxyphenyl)-5-methyl-7-(4-methylphenyl-sulphonyl)-7H-pyrrolo[2,3-d]pyrimidine] | 0 | 50 | 60 | 0 | 70 | 0 | 0 | 0 | 0 | 0 | 0 | 0 | –
COC(=O)c1nc(-c2ccc(Cl)c(OC)c2F)nc2scc(C)c12 [Compound 21-64, 2-(4-Chloro-2-fluoro-3-methoxyphenyl)-4-methoxycarbonyl-5-methyl-thieno[2,3-d]pyrimidine] | 0 | 80 | 40 | 10 | 70 | 0 | 0 | 0 | 0 | 0 | 0 | 0 | –
COC(=O)c1nc(-c2ccc(Cl)c(F)c2)cc2[nH]cc(C)c12 [Compound 22-20, 6-(4-Chloro-3-fluorophenyl)-4-methoxycarbonyl-3-methyl-1H-pyrrolo[3,2-c]pyridine] | 60 | 100 | 70 | 70 | 80 | 50 | 0 | 100 | 80 | 60 | 20 | 20 | –
COC(=O)c1nc(-c2ccc(Cl)c(OC)c2F)cc2[nH]ccc12 [Compound 22-62, 6-(4-Chloro-2-fluoro-3-methoxyphenyl)-4-methoxycarbonyl-1H-pyrrolo[3,2-c]pyridine] | 20 | 80 | 60 | 50 | 70 | 0 | 0 | 20 | 50 | 20 | 0 | 0 | –
COc1c(Cl)ccc(-c2cc3[nH]cc(C)c3c(C(=O)O)n2)c1F [Compound 22-63, 4-Carboxy-6-(4-chloro-2-fluoro-3-methoxyphenyl)-3-methyl-1H-pyrrolo[3,2-c]pyridine] | 90 | 70 | 70 | 70 | 80 | 40 | 0 | 20 | 70 | 60 | 0 | 0 | –
COC(=O)c1nc(-c2ccc(Cl)c(OC)c2F)cc2[nH]cc(C)c12 [Compound 22-64, 6-(4-chloro-2-fluoro-3-methoxyphenyl)-4-methoxycarbonyl-3-methyl-1H-pyrrolo[3,2-c]pyridine] | 70 | 100 | 70 | 80 | 90 | 50 | 20 | 90 | 60 | 80 | 70 | 10 | –
CCOC(=O)c1nc(-c2ccc(Cl)c(OC)c2F)cc2[nH]cc(C)c12 [Compound 22-75, 6-(4-chloro-2-fluoro-3-methoxyphenyl)-4-ethoxycarbonyl-3-methyl-1H-pyrrolo[3,2-c]pyridine] | 50 | 80 | 60 | 20 | 90 | 10 | 0 | 70 | 90 | 80 | 10 | 10 | –
CCCCCCCCOC(=O)c1nc(-c2ccc(Cl)c(OC)c2F)cc2[nH]cc(C)c12 [Compound 22-77] | – | – | – | – | – | – | – | – | – | – | – | – | Percentage damage caused to weed species, post-emergence, SETFA (Setaria faberi (SETFA) [1]): 0%; Percentage damage caused to weed species, post-emergence, AMARE [2]: 70%; Percentage damage caused to weed species, post-emergence, IPOHE [3]: 30%; Percentage damage caused to weed species, post-emergence, ECHCG [4]: 0%; Percentage damage caused to weed species, post-emergence, SOLNI (Solanum nigrum (SOLNI) [5]): 90%; Percentage damage caused to weed species, post-emergence, ALOMY [6]: 10%; Percentage damage caused to weed species, pre-emergence, SETFA (Setaria faberi (SETFA) [7]): 20%; Percentage damage caused to weed species, pre-emergence, AMARE [8]: 20%; Percentage damage caused to weed species, pre-emergence, IPOHE [9]: 90%; Percentage damage caused to weed species, pre-emergence, SOLNI (Solanum nigrum (SOLNI) [10]): 80%; Percentage damage caused to weed species, pre-emergence, ECHCG [11]: 0%; Percentage damage caused to weed species, pre-emergence, ALOMY [12]: 10%
COc1c(Cl)ccc(-c2cc3[nH]cc(C)c3c(C(=O)OC(C)C)n2)c1F [Compound 22-78, 6-(4-Chloro-2-fluoro-3-methoxyphenyl)-4-isopropoxycarbonyl-3-methyl-1H-pyrrolo[3,2-c]pyridne] | 0 | 0 | 70 | 0 | 60 | 0 | 0 | 20 | 0 | 10 | 0 | 0 | –
CCCCCC(C)OC(=O)c1nc(-c2ccc(Cl)c(OC)c2F)cc2[nH]cc(C)c12 (stereo not drawn) [Compound 22-79, 6-(4-Chloro-2-fluoro-3-methoxyphenyl)-4-(hept-2-yloxycarbonyl)-3-methyl-1H-pyrrolo[3,2-c]pyridine] | 10 | 40 | 40 | 0 | 70 | 10 | 20 | 10 | 30 | 50 | 10 | 10 | –
C=CCOC(=O)c1nc(-c2ccc(Cl)c(OC)c2F)cc2[nH]cc(C)c12 [Compound 22-80, 6-(4-Chloro-2-fluoro-3-methoxyphenyl)-3-methyl-4-(prop-2-enyloxycarbonyl)-1H-pyrrolo[3,2-c]pyridine] | 20 | 70 | 50 | 10 | 90 | 10 | 20 | 40 | 50 | 60 | 20 | 20 | –
